# From patent US11542235B2, “Herbicidal 3-azaspiro[5.5] undecane-8, 10-dione compounds” (SYNGENTA PARTICIPATIONS AG, priority 2018, dated 2023)
# Test system: Lolium perenne (LOLPE)
# Experiment: Glasshouse herbicidal test, pre- and post-emergence, Lolium perenne
# Format: in vivo
# Conditions: post-emergence, 250 g/h, evaluated after 13 days, five point scale
# Method: (§1) Seeds of a variety of test species are sown in standard soil in pots (Lolium perenne (LOLPE), Setaria faberi (SETFA), Alopecurus myosuroides (ALOMY), Echinochloa crus-galli (ECHCG), Avena fatua (AVEFA)). After cultivation for one day (pre-emergence) or after 8 days cultivation (post-emergence) under controlled conditions in a glasshouse (at 24/16° C., day/night; 14 hours light; 65% humidity), the plants are sprayed with an aqueous spray solution derived from the formulation of the technical active ingredient in acetone/water (50:50) solution containing 0.5% Tween 20 (polyoxyethelyene sorbitan monolaurate, CAS RN 9005-64-5). Compounds are applied at […]. The test plants are then grown in a glasshouse under controlled conditions in a glasshouse (at 24/16° C., day/night; 14 hours light; 65% humidity) and watered twice daily. After 13 days for pre and post-emergence, the test is evaluated for the percentage damage caused to the plant. The biological activities are shown in the following table on a five point scale (5=80-100%; 4=60-79%; 3=40-59%; 2=20-39%; 1=0-19%).
row,Structure (SMILES),"percentage damage caused to the plant, LOLPE POST"
1,CC#Cc1cc(C)c(C2C(=O)CC3(CCN(C(=O)C(C)C)CC3)CC2=O)c(C)c1 [Compound A11],5 (5=80-100%)
2,CC#Cc1cc(C)c(C2C(=O)CC3(CCN(C(=O)C(C)(C)C)CC3)CC2=O)c(C)c1 [Compound A12],5 (5=80-100%)
3,CC#Cc1cc(OC)c(C2C(=O)CC3(CCN(C(C)=O)CC3)CC2=O)c(OC)c1 [Compound A14],5 (5=80-100%)
4,CC#Cc1cc(C)c(C2C(=O)CC3(CCN(C(C)=O)CC3)CC2=O)c(OC)c1 [Compound A15],5 (5=80-100%)
5,CC#Cc1cc(C)c(C2=C(O)CC3(CCN(C(C)=O)CC3)CC2=O)c(C)c1 [Compound A17],5 (5=80-100%)
6,CC#Cc1cc(C)c(C2=C([O-])CC3(CCN(C(C)=O)CC3)CC2=O)c(C)c1.[Na+] [Compound A18],5 (5=80-100%)

# Same assay, conditions: pre-emergence, 250 g/h, evaluated after 13 days, five point scale
row,Structure (SMILES),"percentage damage caused to the plant, LOLPE PRE"
1,CC#Cc1cc(C)c(C2C(=O)CC3(CCN(C(=O)C(C)C)CC3)CC2=O)c(C)c1 [Compound A11],5 (5=80-100%)
2,CC#Cc1cc(C)c(C2C(=O)CC3(CCN(C(=O)C(C)(C)C)CC3)CC2=O)c(C)c1 [Compound A12],5 (5=80-100%)
3,CC#Cc1cc(OC)c(C2C(=O)CC3(CCN(C(C)=O)CC3)CC2=O)c(OC)c1 [Compound A14],5 (5=80-100%)
4,CC#Cc1cc(C)c(C2C(=O)CC3(CCN(C(C)=O)CC3)CC2=O)c(OC)c1 [Compound A15],5 (5=80-100%)
5,CC#Cc1cc(C)c(C2=C(O)CC3(CCN(C(C)=O)CC3)CC2=O)c(C)c1 [Compound A17],5 (5=80-100%)
6,CC#Cc1cc(C)c(C2=C([O-])CC3(CCN(C(C)=O)CC3)CC2=O)c(C)c1.[Na+] [Compound A18],5 (5=80-100%)

# Test system: Avena fatua (AVEFA)
# Experiment: Glasshouse herbicidal test, pre- and post-emergence, Avena fatua
# Format: in vivo
# Conditions: post-emergence, 250 g/h, evaluated after 13 days, five point scale
# Method: as §1
row,Structure (SMILES),"percentage damage caused to the plant, AVEFA POST"
1,CC#Cc1cc(C)c(C2C(=O)CC3(CCN(C(=O)C(C)C)CC3)CC2=O)c(C)c1 [Compound A11],5 (5=80-100%)
2,CC#Cc1cc(C)c(C2C(=O)CC3(CCN(C(=O)C(C)(C)C)CC3)CC2=O)c(C)c1 [Compound A12],5 (5=80-100%)
3,CC#Cc1cc(OC)c(C2C(=O)CC3(CCN(C(C)=O)CC3)CC2=O)c(OC)c1 [Compound A14],5 (5=80-100%)
4,CC#Cc1cc(C)c(C2C(=O)CC3(CCN(C(C)=O)CC3)CC2=O)c(OC)c1 [Compound A15],5 (5=80-100%)
5,CC#Cc1cc(C)c(C2=C(O)CC3(CCN(C(C)=O)CC3)CC2=O)c(C)c1 [Compound A17],5 (5=80-100%)
6,CC#Cc1cc(C)c(C2=C([O-])CC3(CCN(C(C)=O)CC3)CC2=O)c(C)c1.[Na+] [Compound A18],5 (5=80-100%)

# Same assay, conditions: pre-emergence, 250 g/h, evaluated after 13 days, five point scale
row,Structure (SMILES),"percentage damage caused to the plant, AVEFA PRE"
1,CC#Cc1cc(C)c(C2C(=O)CC3(CCN(C(=O)C(C)C)CC3)CC2=O)c(C)c1 [Compound A11],5 (5=80-100%)
2,CC#Cc1cc(C)c(C2C(=O)CC3(CCN(C(=O)C(C)(C)C)CC3)CC2=O)c(C)c1 [Compound A12],5 (5=80-100%)
3,CC#Cc1cc(OC)c(C2C(=O)CC3(CCN(C(C)=O)CC3)CC2=O)c(OC)c1 [Compound A14],5 (5=80-100%)
4,CC#Cc1cc(C)c(C2C(=O)CC3(CCN(C(C)=O)CC3)CC2=O)c(OC)c1 [Compound A15],5 (5=80-100%)
5,CC#Cc1cc(C)c(C2=C(O)CC3(CCN(C(C)=O)CC3)CC2=O)c(C)c1 [Compound A17],5 (5=80-100%)
6,CC#Cc1cc(C)c(C2=C([O-])CC3(CCN(C(C)=O)CC3)CC2=O)c(C)c1.[Na+] [Compound A18],5 (5=80-100%)

# Test system: Echinochloa crus-galli (ECHCG)
# Experiment: Glasshouse herbicidal test, pre- and post-emergence, Echinochloa crus-galli
# Format: in vivo
# Conditions: post-emergence, 250 g/h, evaluated after 13 days, five point scale
# Method: as §1
row,Structure (SMILES),"percentage damage caused to the plant, ECHCG POST"
1,CC#Cc1cc(C)c(C2C(=O)CC3(CCN(C(=O)C(C)C)CC3)CC2=O)c(C)c1 [Compound A11],5 (5=80-100%)
2,CC#Cc1cc(C)c(C2C(=O)CC3(CCN(C(=O)C(C)(C)C)CC3)CC2=O)c(C)c1 [Compound A12],5 (5=80-100%)
3,CC#Cc1cc(OC)c(C2C(=O)CC3(CCN(C(C)=O)CC3)CC2=O)c(OC)c1 [Compound A14],5 (5=80-100%)
4,CC#Cc1cc(C)c(C2C(=O)CC3(CCN(C(C)=O)CC3)CC2=O)c(OC)c1 [Compound A15],5 (5=80-100%)
5,CC#Cc1cc(C)c(C2=C(O)CC3(CCN(C(C)=O)CC3)CC2=O)c(C)c1 [Compound A17],5 (5=80-100%)
6,CC#Cc1cc(C)c(C2=C([O-])CC3(CCN(C(C)=O)CC3)CC2=O)c(C)c1.[Na+] [Compound A18],5 (5=80-100%)

# Same assay, conditions: pre-emergence, 250 g/h, evaluated after 13 days, five point scale
row,Structure (SMILES),"percentage damage caused to the plant, ECHCG PRE"
1,CC#Cc1cc(C)c(C2C(=O)CC3(CCN(C(=O)C(C)C)CC3)CC2=O)c(C)c1 [Compound A11],5 (5=80-100%)
2,CC#Cc1cc(C)c(C2C(=O)CC3(CCN(C(=O)C(C)(C)C)CC3)CC2=O)c(C)c1 [Compound A12],5 (5=80-100%)
3,CC#Cc1cc(OC)c(C2C(=O)CC3(CCN(C(C)=O)CC3)CC2=O)c(OC)c1 [Compound A14],5 (5=80-100%)
4,CC#Cc1cc(C)c(C2C(=O)CC3(CCN(C(C)=O)CC3)CC2=O)c(OC)c1 [Compound A15],5 (5=80-100%)
5,CC#Cc1cc(C)c(C2=C(O)CC3(CCN(C(C)=O)CC3)CC2=O)c(C)c1 [Compound A17],5 (5=80-100%)
6,CC#Cc1cc(C)c(C2=C([O-])CC3(CCN(C(C)=O)CC3)CC2=O)c(C)c1.[Na+] [Compound A18],5 (5=80-100%)

# Test system: Alopecurus myosuroides (ALOMY)
# Experiment: Glasshouse herbicidal test, pre- and post-emergence, Alopecurus myosuroides
# Format: in vivo
# Conditions: post-emergence, 250 g/h, evaluated after 13 days, five point scale
# Method: as §1
row,Structure (SMILES),"percentage damage caused to the plant, ALOMY POST"
1,CC#Cc1cc(C)c(C2C(=O)CC3(CCN(C(=O)C(C)C)CC3)CC2=O)c(C)c1 [Compound A11],5 (5=80-100%)
2,CC#Cc1cc(C)c(C2C(=O)CC3(CCN(C(=O)C(C)(C)C)CC3)CC2=O)c(C)c1 [Compound A12],5 (5=80-100%)
3,CC#Cc1cc(OC)c(C2C(=O)CC3(CCN(C(C)=O)CC3)CC2=O)c(OC)c1 [Compound A14],5 (5=80-100%)
4,CC#Cc1cc(C)c(C2C(=O)CC3(CCN(C(C)=O)CC3)CC2=O)c(OC)c1 [Compound A15],5 (5=80-100%)
5,CC#Cc1cc(C)c(C2=C(O)CC3(CCN(C(C)=O)CC3)CC2=O)c(C)c1 [Compound A17],5 (5=80-100%)
6,CC#Cc1cc(C)c(C2=C([O-])CC3(CCN(C(C)=O)CC3)CC2=O)c(C)c1.[Na+] [Compound A18],5 (5=80-100%)

# Same assay, conditions: pre-emergence, 250 g/h, evaluated after 13 days, five point scale
row,Structure (SMILES),"percentage damage caused to the plant, ALOMY PRE"
1,CC#Cc1cc(C)c(C2C(=O)CC3(CCN(C(=O)C(C)C)CC3)CC2=O)c(C)c1 [Compound A11],5 (5=80-100%)
2,CC#Cc1cc(C)c(C2C(=O)CC3(CCN(C(=O)C(C)(C)C)CC3)CC2=O)c(C)c1 [Compound A12],5 (5=80-100%)
3,CC#Cc1cc(OC)c(C2C(=O)CC3(CCN(C(C)=O)CC3)CC2=O)c(OC)c1 [Compound A14],5 (5=80-100%)
4,CC#Cc1cc(C)c(C2C(=O)CC3(CCN(C(C)=O)CC3)CC2=O)c(OC)c1 [Compound A15],5 (5=80-100%)
5,CC#Cc1cc(C)c(C2=C(O)CC3(CCN(C(C)=O)CC3)CC2=O)c(C)c1 [Compound A17],5 (5=80-100%)
6,CC#Cc1cc(C)c(C2=C([O-])CC3(CCN(C(C)=O)CC3)CC2=O)c(C)c1.[Na+] [Compound A18],5 (5=80-100%)

# Test system: Setaria faberi (SETFA)
# Experiment: Glasshouse herbicidal test, pre- and post-emergence, Setaria faberi
# Format: in vivo
# Conditions: post-emergence, 250 g/h, evaluated after 13 days, five point scale
# Method: as §1
row,Structure (SMILES),"percentage damage caused to the plant, SETFA POST"
1,CC#Cc1cc(C)c(C2C(=O)CC3(CCN(C(=O)C(C)C)CC3)CC2=O)c(C)c1 [Compound A11],5 (5=80-100%)
2,CC#Cc1cc(C)c(C2C(=O)CC3(CCN(C(=O)C(C)(C)C)CC3)CC2=O)c(C)c1 [Compound A12],5 (5=80-100%)
3,CC#Cc1cc(OC)c(C2C(=O)CC3(CCN(C(C)=O)CC3)CC2=O)c(OC)c1 [Compound A14],5 (5=80-100%)
4,CC#Cc1cc(C)c(C2C(=O)CC3(CCN(C(C)=O)CC3)CC2=O)c(OC)c1 [Compound A15],5 (5=80-100%)
5,CC#Cc1cc(C)c(C2=C(O)CC3(CCN(C(C)=O)CC3)CC2=O)c(C)c1 [Compound A17],5 (5=80-100%)
6,CC#Cc1cc(C)c(C2=C([O-])CC3(CCN(C(C)=O)CC3)CC2=O)c(C)c1.[Na+] [Compound A18],5 (5=80-100%)

# Same assay, conditions: pre-emergence, 250 g/h, evaluated after 13 days, five point scale
row,Structure (SMILES),"percentage damage caused to the plant, SETFA PRE"
1,CC#Cc1cc(C)c(C2C(=O)CC3(CCN(C(=O)C(C)C)CC3)CC2=O)c(C)c1 [Compound A11],5 (5=80-100%)
2,CC#Cc1cc(C)c(C2C(=O)CC3(CCN(C(=O)C(C)(C)C)CC3)CC2=O)c(C)c1 [Compound A12],5 (5=80-100%)
3,CC#Cc1cc(OC)c(C2C(=O)CC3(CCN(C(C)=O)CC3)CC2=O)c(OC)c1 [Compound A14],5 (5=80-100%)
4,CC#Cc1cc(C)c(C2C(=O)CC3(CCN(C(C)=O)CC3)CC2=O)c(OC)c1 [Compound A15],5 (5=80-100%)
5,CC#Cc1cc(C)c(C2=C(O)CC3(CCN(C(C)=O)CC3)CC2=O)c(C)c1 [Compound A17],5 (5=80-100%)
6,CC#Cc1cc(C)c(C2=C([O-])CC3(CCN(C(C)=O)CC3)CC2=O)c(C)c1.[Na+] [Compound A18],5 (5=80-100%)
